Measurements taken from PubChem BioAssay (NCI).
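Growth conditions: 96-well plates. Treatment: test compound, 48 hours, 5 concentrations. Analysis: linear interpolation between bracketing concentrations; unreached endpoints set to highest concentration. Abbreviation: GI50, concentration required for 50% inhibition of growth. TGI marks complete inhibition of growth.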

How the values were obtained:
Test in all cases: NCI tumour cell line growth inhibition, 48 h
[1] = system: CAKI-1 renal
[2] = system: HCC-2998 colon
[3] = system: TK-10 renal
[4] = system: M14 melanoma
[5] = system: ACHN renal
[6] = system: SW-620 colon
[7] = system: IGROV1 ovarian
[8] = system: UACC-62 melanoma
[9] = system: SR leukemia
[10] = system: SF-539 CNS
[11] = system: HS 578T breast
[12] = system: UACC-257 melanoma
[13] = system: A549 NSCLC
[14] = system: NCI/ADR-RES ovarian
[15] = system: MCF7 breast
[16] = system: SN12C renal
[17] = system: HCT-116 colon
[18] = system: COLO 205 colon
[19] = system: UO-31 renal
[20] = system: U251 CNS
[21] = system: K-562 leukemia
[22] = system: OVCAR-4 ovarian
[23] = system: SF-268 CNS
[24] = system: HL-60(TB) leukemia
[25] = system: BT-549 breast
[26] = system: SK-MEL-28 melanoma
[27] = system: SF-295 CNS
[28] = system: NCI-H226 lung
[29] = system: SK-OV-3 ovarian
[30] = system: 786-0 renal
[31] = system: NCI-H522 lung
[32] = system: MDA-MB-231 breast
[33] = system: OVCAR-8 ovarian
[34] = system: KM12 colon
[35] = system: MALME-3M melanoma
[36] = system: NCI-H460 lung
[37] = system: HOP-62 NSCLC
[38] = system: MOLT-4 leukemia
[39] = system: MDA-MB-435
[40] = system: SK-MEL-5 melanoma
[41] = system: DU-145 prostate
[42] = system: A498 renal
[43] = system: HCT-15 colon
[44] = system: OVCAR-5 ovarian
[45] = system: PC-3 prostate
[46] = system: HOP-92 NSCLC
[47] = system: EKVX NSCLC
[48] = system: SNB-75 CNS
[49] = system: T-47D breast
[50] = system: LOX IMVI melanoma
[51] = system: CCRF-CEM leukemia
[52] = system: RPMI-8226 leukemia
[53] = system: SK-MEL-2 melanoma
[54] = system: HT29 colon
[55] = system: SNB-19 CNS
[56] = system: RXF 393 renal

## CC1(C)CC[C@]23CC[C@]4(C)[C@H](CC[C@@H]5[C@@]6(C)CC[C@H](NCO)C(C)(C)[C@@H]6CC[C@]54C)[C@H]2[C@H]1OC3
[1]
  GI50: 10.2 µM
  TGI: 23.3 µM
[2]
  GI50: 1.95 µM
  TGI: 4.17 µM
[3]
  GI50: 22.6 µM
  TGI: 38 µM
[4]
  GI50: 11.5 µM
  TGI: 23.7 µM
[5]
  GI50: 5.01 µM
  TGI: 17.1 µM
[6]
  GI50: 1.7 µM
  TGI: 3.7 µM
[7]
  GI50: 7.56 µM
  TGI: 22.6 µM
[8]
  GI50: 16.9 µM
  TGI: 31.5 µM
[9]
  GI50: 0.741 µM
  TGI: 6.71 µM
[10]
  GI50: 12.3 µM
  TGI: 26.5 µM
[11]
  GI50: 15.3 µM
  TGI: 42 µM
[12]
  GI50: 14.7 µM
  TGI: 28.3 µM
[13]
  GI50: 4.39 µM
  TGI: 18.1 µM
[14]
  GI50: 14 µM
  TGI: 30.9 µM
[15]
  GI50: 2.25 µM
  TGI: 6.4 µM
[16]
  GI50: 12 µM
  TGI: 30 µM
[17]
  GI50: 3.7 µM
  TGI: 12.9 µM
[18]
  GI50: 2.06 µM
  TGI: 4.18 µM
[19]
  GI50: 13.3 µM
  TGI: 28.1 µM
[20]
  GI50: 2.5 µM
  TGI: 8.16 µM
[21]
  GI50: 2.35 µM
  TGI: 6.9 µM
[22]
  GI50: 14.3 µM
  TGI: 31 µM
[23]
  GI50: 16.3 µM
  TGI: 37.9 µM
[24]
  GI50: 1.58 µM
  TGI: 4.62 µM
[25]
  GI50: 15.6 µM
  TGI: 28.9 µM
[26]
  GI50: 15.5 µM
  TGI: 28.9 µM
[27]
  GI50: 14.4 µM
  TGI: 28.7 µM
[28]
  GI50: 14.9 µM
  TGI: 34 µM
[29]
  GI50: 15 µM
  TGI: 31.4 µM
[30]
  GI50: 3.77 µM
  TGI: 15.3 µM
[31]
  GI50: 16.3 µM
  TGI: 32 µM
[32]
  GI50: 4 µM
  TGI: 17.4 µM
[33]
  GI50: 3.25 µM
  TGI: 11.9 µM
[34]
  GI50: 17.5 µM
  TGI: 31.3 µM
[35]
  GI50: 16 µM
  TGI: 34.3 µM
[36]
  GI50: 2.24 µM
  TGI: 5.03 µM
[37]
  GI50: 15.5 µM
  TGI: 35.7 µM
[38]
  GI50: 3.16 µM
  TGI: 16.1 µM
[39]
  GI50: 12.9 µM
  TGI: 25.6 µM
[40]
  GI50: 15.3 µM
  TGI: 28.6 µM
[41]
  GI50: 14.1 µM
  TGI: 32 µM
[42]
  GI50: 14.1 µM
  TGI: 27.1 µM
[43]
  GI50: 2.9 µM
  TGI: 10.9 µM
[44]
  GI50: 11.8 µM
  TGI: 24.1 µM
[45]
  GI50: 10.8 µM
  TGI: 31.6 µM
[46]
  GI50: 2.82 µM
  TGI: 18.3 µM
[47]
  GI50: 16.9 µM
  TGI: 32.5 µM
[48]
  GI50: 16.8 µM
  TGI: 33.4 µM
[49]
  GI50: 7.72 µM
  TGI: 28.9 µM
[50]
  GI50: 1.52 µM
  TGI: 2.95 µM
[51]
  GI50: 5.93 µM
  TGI: > 100 µM
[52]
  GI50: 3.64 µM
  TGI: 18.7 µM
[53]
  GI50: 14.2 µM
  TGI: 27.2 µM
[54]
  GI50: 5.25 µM
  TGI: 17.4 µM
[55]
  GI50: 16.7 µM
  TGI: 36.6 µM
[56]
  GI50: 6.16 µM
  TGI: 20.4 µM
